Results reported in patent US12115193B2, “Methods of using RARγ agonists for cancer treatment” (Io Therapeutics, Inc., priority 2021, dated 2024).

Columns and labels:
[1] = test system: LLC cells; assay: LLC syngeneic model in C57BL/6 mice (Example 10); assay type: in vivo
Protocol: The LLC model is based on an epidermoid carcinoma of the lung that spontaneously arose in a C57BL/6 mouse some 70 years ago, Syngeneic models have been useful in predicting clinical benefit. C57BL/6 mice, 6-8 weeks old, were injected subcutaneously in the left flank with 0.1 mL containing 3×10^5 LLC cells. When tumors reached an average tumor volume of 50-150 mm^3, the mice were matched by tumor size and sorted into control and treatment groups, and dosing initiated (Day 0). Three groups of 10 mice each were established: vehicle control, 10 mg/kg GA2E, and 25 mg/kg GA2E. The mice received one oral dose per day for 13 days. Tumor volumes and weight were measured on days 0, 2, 4, 6, 9, 11, and 13. This study was ended on Day 13, as the average tumor volume was >1500 mm^3, and the tumors analyzed by flow cytometry. Two animals in the 10 mg/kg group and one animal in the 25 mg/kg group were terminated early due to ulceration of the tumor.

[2] = test system: TIL in JIMT-1 tumors; assay: Flow cytometry of JIMT-1 tumors from NSG-B2M mice, Day 26; assay type: in vivo, human
From the text: The mice were sacrificed on Day 26 of the study and the tumors collected and analyzed by flow cytometry. Statistical analysis was by ordinary one-way ANOVA with Tukey's test for significance comparison between groups. Gates were set to identify single cells by forward light scatter, live cells as single cells based on side scatter and staining with the vital stain Fixable Viability Dye eFluor™ 780, white blood cells from live cells based on side scatter and staining with anti-CD45, lymphocytes from white blood cells based on side and forward light scatter, and total T lymphocytes (tot T) from lymphocytes based on side scatter and staining with anti-CD3. Total T lymphocytes were divided into CD4^+ (TH) and CD8^+ (TC) lymphocytes based on staining with and anti-CD4 and CD8 antibodies and subsets assessed. The following observations were made on a per-mg of tumor tissue basis.

[3] = test system: JIMT-1 cells; assay: NSG-B2M mice implanted with JIMT-1 Her2+ breast cancer cells and human PBMC; assay type: in vivo
Protocol: The NSG-B2M mouse model is a severely immunocompromised animal, combining the lesions non-obese diabetic (NOD), severe combined immunodeficiency (SCID), IL-2 receptor γ null, and β2-microglobulin null. Human tumor cells readily engraft in this model and cells from the human immune system can also be engrafted in order to study various modes of cancer immunotherapy. Thus, one can model a human immune response to a human tumor in this system. Female NSG-B2M mice were injected in the mammary fat pad with 5×10^6 JIMT-1 cells (human breast carcinoma cell line) suspended in 0.1 mL of phosphate-buffered saline (PBS) with an equal volume of Matrigel®. Once tumors reached a volume of 100-200 mm^3, the mice were implanted with 1×10^7 human PBMC by subcutaneous injection into the right flank (pre-randomization). PBMC were obtained from two donors and distributed evenly between groups. When tumors reached an average tumor volume of 200-250 mm^3 (about 3 days post-PBMC injection) animals were matched by tumor volume into treatment and control groups, and dosing initiated. This first day of dosing was defined as Day 0. The mice were administered a daily oral dose of 10 mL/kg of 10% dimethyl sulfoxide (DMSO) in PBS as vehicle control or 10 mg/kg of GA2E dissolved in 10% DMSO in PBS as the treatment.
Tumor volume was measured twice weekly and on the day a study endpoint was reached. The mice were also weighed twice weekly and on the day a study endpoint was reached.
Study endpoint was defined as when the mean tumor volume of the control group (uncensored) reaches 1500 mm^3. If this occurs before Day 28, treatment groups and individual mice were permitted to be dosed and measured up to Day 28.

[4] = biological target: T1, RARγ (Homo sapiens, UniProt P13631); assay: RARγ transactivation assay (luciferase reporter); assay type: cell-based; conditions: at all tested concentrations (0.5 to 625 nM); receptor not given
T1 construct: expression plasmids encoding the full-length receptors RARα and RARγ; expressed in transfected cells
T1 sequence (P13631 1-454): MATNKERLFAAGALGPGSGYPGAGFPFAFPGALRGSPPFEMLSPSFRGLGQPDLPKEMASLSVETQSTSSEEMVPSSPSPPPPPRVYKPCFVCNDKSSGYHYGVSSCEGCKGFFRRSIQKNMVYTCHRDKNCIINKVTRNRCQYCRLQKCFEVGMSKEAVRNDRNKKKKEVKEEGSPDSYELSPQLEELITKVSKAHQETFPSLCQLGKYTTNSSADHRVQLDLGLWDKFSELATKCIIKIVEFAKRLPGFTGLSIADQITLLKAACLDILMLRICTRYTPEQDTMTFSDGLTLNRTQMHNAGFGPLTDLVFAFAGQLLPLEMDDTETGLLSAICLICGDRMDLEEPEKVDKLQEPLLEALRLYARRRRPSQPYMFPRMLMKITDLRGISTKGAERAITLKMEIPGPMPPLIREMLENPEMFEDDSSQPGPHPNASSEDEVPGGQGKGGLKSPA
Protocol: Transactivation assays were conducted to test the specificity of binding activity of GA1E and GA2E for RARα and RARγ. Retinoic acid receptor transactivation activity and binding efficiencies were determined essentially as described in U.S. Pat. Nos. 5,298,429 and 5,071,773, incorporated by reference herein for all they teach regarding transactivation assays. Transactivation assays employed expression plasmids encoding the full-length receptors RARα and RARγ. Reporter plasmids containing the herpes virus thymidine kinase promoter and the appropriate retinoic acid receptor response element (RAREs) were positioned upstream of an open coding region encoding firefly luciferase.
The ability of GA1E and GA2E to activate RARα and RARγ in a transactivation assay was tested over a concentration range of 0.5 to 625 nM (GA2E) or 0.05 to 3320 nM (GA1E). GA1E induced less than 10% transactivation for RARα across the whole concentration range, but over 50% transactivation for RARγ at concentrations ≥25 nM and over 70% at concentrations 125 nM (FIG. 3A). GA2E induced more than 85% transactivation at all tested concentrations and less than 10% transactivation of RARα at concentrations of ≤25 nM (FIG. 3B).

[5] = 10 mg/kg oral daily for 13 days
[6] = 25 mg/kg oral daily for 13 days
[7] = per mg tumor, vs controls, P<0.0001
[8] = per mg tumor, vs controls, P<0.001
[9] = per mg tumor, vs controls, P<0.05
[10] = per mg tumor, vs controls, P<0.05, listed as GA2
[11] = per mg tumor, vs controls, P>0.05

Structure (SMILES): CC1(C)CCC(C)(C)c2cc(C(/C=C/c3ccc(C(=O)O)cc3F)=N/O)ccc21 [GA2E, 3-fluoro-4-((1E,3E)-3-(hydroxyimino)-3-(5,5,8,8-tetramethyl-5,6,7,8-tetrahydronaphthalen-2-yl)prop-1-en-1-yl)benzoic acid]
- tolerability [1, 5]: well tolerated
- tumor growth [1, 5]: inhibited tumor growth
- weight loss over the course of the study [1, 5]: minimal weight loss
- tolerability [1, 6]: less well tolerated
- tumor growth [1, 6]: inhibited tumor growth
- weight loss ([1]; 25 mg/kg oral daily, by about Day 10): exceeding 10%
- proportion of tumor cells expressing PD-L1, CD18β, CD58 (LFA-3), and Her2 ([2]; JIMT-1 tumor cells, flow cytometry): did not significantly alter
- concentration of T central memory CD8+ cells (CCR7+ CD45AR−) in tumor ([2]; per mg tumor, vs controls): no significant change
- concentration of T effector memory CD8+ cells (CCR7− CD45AR−) in tumor ([2]; per mg tumor, vs controls): no significant change
- concentration of naïve CD8+ cells (CCR7+ CD45AR+) in tumor ([2]; per mg tumor, vs controls): no significant change
- concentration of CD8+ TIL expressing PD-1 [2, 7]: increased
- concentration of terminally differentiated CD8+ T effector cells (CCR7− CD45AR+) [2, 7]: substantial increase
- concentration of CD8+ TIL expressing CD18β [2, 8]: increased
- concentration of total CD8+ lymphocytes in tumor [2, 8]: increased
- concentration of CD8+ TIL expressing CD54 ([2]; per mg tumor, vs controls, P<0.01): increased
- concentration of CD4+ TIL expressing CD18β [2, 9]: increased
- concentration of CD4+ TIL expressing CD54 [2, 9]: decreased
- concentration of CD4+ TIL expressing PD-1 [2, 9]: decreased
- concentration of T central memory CD4+ cells (CCR7+ CD45AR−) [2, 9]: decreased
- concentration of T effector memory CD4+ cells (CCR7− CD45AR−) [2, 9]: decreased
- concentration of naïve CD4+ cells (CCR7+ CD45AR+) [2, 9]: decreased
- concentration of total CD4+ lymphocytes in tumor [2, 9]: decreased
- concentration of CD4+ TIL expressing CD54 [2, 10]: increased
- concentration of CD4+ TIL expressing PD-1 [2, 10]: increased
- concentration of CD4+ TIL expressing FoxP3 [2, 11]: increased
- concentration of terminally differentiated CD4+ T effector cells (CCR7− CD45AR+) [2, 11]: decreased
- tumor volume after drug holiday started on Day 13 ([3]; 10 mg/kg daily oral until Day 12, then drug holiday): tumor shrinkage subsequent to Day 19
- tumor growth while the mice were receiving drug ([3]; 10 mg/kg daily oral, Day 0 to Day 12): No impact on tumor growth
- weight loss ([3]; 10 mg/kg daily oral, by Day 12): > 10%
- transactivation [4]: more than 85%
